Experimental data as given in the supplement of paper PMC10627819.

Legend:
B. subtilis 168 [1] = test: fitness (endpoint OD595 vs no drug) (fraction); higher = more growth
Outline: (§1)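 Volumes were 30 µl per well, or 55 µl for S. pneumoniae, in 384-well plates inoculated at OD595 0.01. Media were TSB, LB Lennox or CY at 37 °C, and OD595 was read every 30 min for 14 h with first-reading background subtraction. Fitness is the ratio of optical density at stationary-phase entry to the robust mean of no-drug controls. That ratio is capped at 1.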

B. subtilis 168 [2] = test: Bliss interaction score (quartile over a dose matrix) (fitness difference); higher = more antagonism (negative = synergy)
Outline: (§2)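 Growth was read as OD595 when cultures entered stationary phase, and each value was divided by the plate's robust no-drug mean and capped at 1. This normalised ratio is the fitness value, and fitness for each single drug came from the combination data. The Bliss score subtracts the expected fitness, taken as the product, from the observed fitness and is given as quartiles across technical, biological and donor/recipient replicates.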

S. aureus DSM 20231 = test: as above
Outline: as §2

S. aureus Newman = test: as above
Outline: as §2

S. pneumoniae D39V [3] = test: as above
Outline: as §2

S. pneumoniae D39V [4] = test: fitness (endpoint OD595 vs no drug) (fraction); higher = more growth
Outline: as §1
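For Bliss interaction score (quartile over a dose matrix) in this document: first quartile when negative (synergy) and third quartile when positive (antagonism).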

O=C(O[C@@H]1Cc2c(O)cc(O)cc2O[C@@H]1c1cc(O)c(O)c(O)c1)c1cc(O)c(O)c(O)c1 [EGCG] + CO[C@@H]1[C@@H](OC(N)=O)[C@@H](O)[C@H](Oc2ccc3c(O)c(NC(=O)c4ccc(O)c(CC=C(C)C)c4)c(=O)oc3c2C)OC1(C)C [Novobiocin]
fitness, B. subtilis 168 [1]
Details | first compound 6.25 µg/mL | first compound 12.5 µg/mL | first compound 25 µg/mL
partner 0.0125 µg/mL | 0.968 | 0.643 | 0.253
partner 0.025 µg/mL | 0.93 | 0.568 | 0.234
partner 0.05 µg/mL | 0.9 | – | 0.29

fitness, B. subtilis 168 [1], one replicate
Details | partner 0.1 µg/mL | partner 0.125 µg/mL | partner 0.2 µg/mL | partner 0.25 µg/mL | partner 0.5 µg/mL
first compound 6.25 µg/mL | 0.949 | 0.92 | 0.896 | 0.875 | 0.563
first compound 12.5 µg/mL | 0.756 | 0.69 | 0.759 | 0.522 | 0.194
first compound 25 µg/mL | 0.546 | 0.213 | 0.541 | 0.223 | 0.207

Details | Bliss interaction score
B. subtilis 168 [2] | -0.0765
S. aureus DSM 20231 | 0.0574
S. aureus Newman | 0.074
S. pneumoniae D39V [3] | -0.0624

CCC[C@@H]1C[C@@H](C(=O)N[C@@H]([C@H]2O[C@H](SC)[C@H](O)[C@@H](O)[C@H]2O)[C@@H](C)O)N(C)C1 [Lincomycin] + CN(C)c1cc(NC(=O)CNC(C)(C)C)c(O)c2c1C[C@H]1C[C@H]3[C@H](N(C)C)C(O)=C(C(N)=O)C(=O)[C@@]3(O)C(O)=C1C2=O [Tigecycline]
fitness
Details | first compound 0.1 µg/mL | first compound 0.2 µg/mL | first compound 0.215 µg/mL | first compound 0.4 µg/mL | first compound 0.43 µg/mL | first compound 0.8 µg/mL | first compound 0.86 µg/mL
B. subtilis 168 [1], partner 0.039 µg/mL | 0.894 | 0.865 | – | 0.979 | – | – | –
B. subtilis 168 [1], partner 0.078 µg/mL | 0.953 | 0.861 | – | 0.897 | – | – | –
B. subtilis 168 [1], partner 0.156 µg/mL | 0.924 | 0.867 | – | 0.846 | – | – | –
S. pneumoniae D39V [4], partner 0.65 µg/mL | – | 0.637 | 0.804 | 0.572 | 0.745 | 0.275 | 0.238
S. pneumoniae D39V [4], partner 1.3 µg/mL | – | 0.63 | 0.789 | 0.578 | 0.694 | 0.314 | 0.213
S. pneumoniae D39V [4], partner 2.6 µg/mL | – | 0.618 | 0.802 | 0.572 | 0.648 | 0.186 | 0.156

fitness, B. subtilis 168 [1], one replicate
Details | first compound 0.4 µg/mL | first compound 0.8 µg/mL | first compound 1.6 µg/mL
partner 0.125 µg/mL | 0.977 | ≥ 1 | 0.944
partner 0.25 µg/mL | 0.856 | 0.886 | 0.845
partner 0.5 µg/mL | 0.867 | 0.888 | 0.907

Details | Bliss interaction score
B. subtilis 168 [2] | -0.076
S. aureus DSM 20231 | -0.213
S. aureus Newman | 0.0588
S. pneumoniae D39V [3] | -0.133
